The text below walks through data of patent US20040102423A1, “Spironolactone and angiotensin II antagonist combination therapy for treatment of congestive heart failure” (G.D. Searle & Co., priority 1995, published 2004).

The experiment addresses angiotensin II AT1 receptor. The experiment can be described thus: Assay A: Angiotensin II binding activity, rat uterine membrane preparation, 125I-AII displacement. As for the experimental part: Assay A: Antiotensin II Binding Activity
Compounds of the invention were tested for ability to bind to the smooth muscle angiotensin II receptor using a rat uterine membrane preparation. […] Rat uterine membranes were prepared from fresh tissue. All procedures were carried out at 4° C. Uteri were stripped of fat and homogenized in phosphate-buffered saline at pH 7.4 containing 5 mM EDTA. The homogenate was centrifuged at 1500×g for 20 min., and the supernatant was recentrifuged at 100,000×g for 60 min. The pellet was resuspended in buffer consisting of 2 mM EDTA and 50 mM Tris-HCl (pH 7.5) to a final protein concentration of 4 mg/ml. […] The reaction was initiated by the addition of membrane protein and the mixture was incubated at 25° C. for 60 min. The incubation was terminated with ice-cold 50 mM Tris-HCl (pH 7.5) and the mixture was filtered to separate membrane-bound labelled peptide from the free ligand. The incubation tube and filter were washed with ice-cold buffer. Filters were assayed for radioactivity in a Micromedic gamma counter. Nonspecific binding was defined as binding in the presence of 10 μM of unlabelled AII. Specific binding was calculated as total binding minus nonspecific binding. […] Binding data were analyzed by a nonlinear least-squares curve fitting program.

`CCCCc1ncnn1Cc1ccc(-c2ccccc2C(=O)O)cc1` [Compound 29] registered an IC50 of 160 nM.

`CCCCc1nc(CCCC2CCCCC2)nn1Cc1ccc(-c2ccccc2-c2nnn[nH]2)cc1` [Compound 69] returned an IC50 of 15 nM.

`CCCCc1nc(-c2ccccc2)nn1Cc1ccc(-c2ccccc2-c2nnn[nH]2)cc1` [Compound 32] gave a concentration for half-maximal inhibition (IC50) of 16 nM.

With `CCCCn1nc(C(=O)N(C)C(C)(C)C)nc1Cc1ccc(-c2ccccc2-c2nnn[nH]2)nc1` [Compound 182], the IC50 is 59 nM.

For `CCCc1cn(CCC)c(=O)n1Cc1ccc(-c2ccccc2-c2nnn[nH]2)nc1` [Compound 197], the IC50 is 14 nM.

`CCCCc1nc(C(=O)CCC)nn1Cc1ccc(-c2ccccc2-c2nnn[nH]2)cc1` [Compound 42] returned an IC50 of 370 nM.

With `CCCCc1nc(-c2ccccc2)nn1Cc1ccc(-c2ccccc2-c2nnn[nH]2)nc1` [Compound 270], the IC50 was 21 nM.

`CCCCc1cn(CCC)c(=O)n1Cc1ccc(-c2ccccc2-c2nnn[nH]2)nc1` [Compound 207] displayed an IC50 of 99 nM.

As for `CCCCc1nc(CCCC)n(Cc2ccc(-c3ccccc3C(=O)O)nc2)n1` [Compound 251], the IC50 was determined as 25 nM.

Compound `CCCCn1nc(C(OC(C)C)OC(C)C)nc1Cc1ccc(-c2ccccc2-c2nnn[nH]2)nc1` [Compound 189] registered an IC50 of 29 nM.

The compound `CCCn1nc(C(F)F)nc1Cc1ccc(-c2ccccc2-c2nnn[nH]2)nc1` [Compound 173] gave an IC50 of 90 nM.

`CCCCc1cn(-c2c(CC)cccc2CC)c(=O)n1Cc1ccc(-c2ccccc2-c2nnn[nH]2)nc1` [Compound 245] had a half-inhibitory concentration (IC50) of 98 nM.

In the case of `CCCCc1nc(C=O)nn1Cc1ccc(-c2ccccc2-c2nnn[nH]2)cc1` [Compound 60], the IC50 was 2200 nM.

The compound `CCCCc1nc2c(OCC)nnc(OCC)c2n1Cc1ccc(-c2ccccc2-c2nnn[nH]2)cc1` [Compound 123] came in with an IC50 of 50 nM.

The compound `CCCCc1cn(-c2ccccc2C(C)(C)C)c(=O)n1Cc1ccc(-c2ccccc2-c2nnn[nH]2)nc1` [Compound 240] displayed a half-maximal inhibitory concentration (IC50) of 120 nM.

`CCCCc1nc(C(=O)Cc2ccccc2)nn1Cc1ccc(-c2ccccc2-c2nnn[nH]2)cc1` [Compound 61] showed an IC50 of 110 nM.

`CCCCc1nc(C(=O)CCC)nn1Cc1ccc(-c2ccccc2-c2nnn[nH]2)cc1` [Compound 41] returned an IC50 of 3700 nM.

As for `CCCCc1nc(CCC(C)C)n(Cc2ccc(-c3ccccc3-c3nnn[nH]3)cc2)n1` [Compound 27], the IC50 turned out to be 180 nM.

For `CCCCc1nc(CN)nn1Cc1ccc(-c2ccccc2-c2nnn[nH]2)cc1` [Compound 38], the IC50 turned out to be 10 nM.

`CCCCc1nc(CCc2ccccc2)nn1Cc1ccc(-c2ccccc2-c2nnn[nH]2)nc1` [Compound 264] registered an IC50 of 11 nM.

For `CCCCn1nc(CCc2ccccc2)nc1Cc1ccc(-c2ccccc2-c2nnn[nH]2)cc1` [Compound 142], the half-maximal inhibitory concentration (IC50) worked out at 2 nM.

The compound `CCCCc1cn(CCCC)c(=O)n1Cc1ccc(-c2ccccc2-c2nnn[nH]2)nc1` [Compound 196] gave a concentration for half-maximal inhibition (IC50) of 31 nM.

For the compound `CCCCn1nc(CCc2cccs2)nc1Cc1ccc(-c2ccccc2-c2nnn[nH]2)nc1` [Compound 164], the half-maximal inhibitory concentration (IC50) was determined as 1700 nM.

`CCCCc1nc(C(OC)OC)n(Cc2ccc(-c3ccccc3-c3nnn[nH]3)cc2)n1` [Compound 34] gave an IC50 of 640 nM.

Consider `CCCCc1nc(C(=O)N(C)C(C)(C)C)nn1Cc1ccc(-c2ccccc2-c2nnn[nH]2)nc1` [Compound 266], for which the IC50 came to 290 nM.

Compound `CCCCc1nc(C23CC4CC(CC(C4)C2)C3)n(Cc2ccc(-c3ccccc3-c3nnn[nH]3)cc2)n1` [Compound 66] gave a half-maximal inhibitory concentration (IC50) of 12 nM.

Compound `CCCCc1nc(C(F)(F)CCC)nn1Cc1ccc(-c2ccccc2-c2nnn[nH]2)cc1` [Compound 21] came in with an IC50 of 87 nM.

`CCCCCCCCc1nc(CCCC)n(Cc2ccc(-c3ccccc3-c3nnn[nH]3)cc2)n1` [Compound 40]: the half-inhibitory concentration (IC50) came out at 83 nM.

The compound `CCCCn1nc(C(=O)NC)nc1Cc1ccc(-c2ccccc2-c2nnn[nH]2)nc1` [Compound 183] gave an IC50 of 390 nM.

For the compound `CCCCc1nc(CC(C)(C)C)nn1Cc1ccc(-c2ccccc2-c2nnn[nH]2)nc1` [Compound 260], the IC50 came to 220 nM.

As for `CCCCc1cn(-c2c(C)cccc2Cl)c(=O)n1Cc1ccc(-c2ccccc2-c2nnn[nH]2)nc1` [Compound 242], the IC50 came to 110 nM.

Turning to `CCCCc1nc(Cc2ccccc2)nn1Cc1ccc(-c2ccccc2-c2nnn[nH]2)cc1` [Compound 55], the IC50 worked out at 80 nM.

In turn, `CCCCc1cn(C23CC4CC(CC(C4)C2)C3)c(=O)n1Cc1ccc(-c2ccccc2-c2nnn[nH]2)nc1` [Compound 225] yielded an IC50 of 160 nM.

Consider `CCCCc1nc(CC(OCC)OCC)n(Cc2ccc(-c3ccccc3-c3nnn[nH]3)cc2)n1` [Compound 48], for which the concentration for half-maximal inhibition (IC50) was determined as 680 nM.

Compound `CCCCc1cn(C2C3CC4CC(C3)CC2C4)c(=O)n1Cc1ccc(-c2ccccc2-c2nnn[nH]2)nc1` (stereo not shown) [Compound 224] displayed a half-maximal inhibitory concentration (IC50) of 91 nM.

On to `CCCCc1nc(CCCO)nn1Cc1ccc(-c2ccccc2-c2nnn[nH]2)cc1` [Compound 56], for which the 50% inhibitory concentration (IC50) came to 5 nM.

On to `CCCCc1cn(-c2ccccc2)c(=O)n1Cc1ccc(-c2ccccc2-c2nnn[nH]2)nc1` [Compound 226], for which the IC50 worked out at 93 nM.

As to `CCCCn1nc(C2OCC(C)(C)CO2)nc1Cc1ccc(-c2ccccc2-c2nnn[nH]2)nc1` [Compound 192], the IC50 came out at 140 nM.

Regarding `CCCCc1nc(-c2ccccc2)n(Cc2ccc(-c3ccccc3-c3nnn[nH]3)cc2)n1` [Compound 33], the IC50 was determined as 630 nM.

In the case of `CCCCc1nc(CCC(C)C)nn1Cc1ccc(-c2ccccc2-c2nnn[nH]2)cc1` [Compound 28], the IC50 is 570 nM.

In turn, `CCCCc1nc(Cc2ccc(-c3ccccc3-c3nnn[nH]3)nc2)n(CCCC)n1` [Compound 161] registered an IC50 of 28 nM.

The compound `CCCCn1nc(C(OCCC)OCCC)nc1Cc1ccc(-c2ccccc2-c2nnn[nH]2)nc1` [Compound 188] displayed an IC50 of 140 nM.

Consider `CCCCc1nc(C(F)F)n(Cc2ccc(-c3ccccc3-c3nnn[nH]3)cc2)n1` [Compound 59], for which the concentration for half-maximal inhibition (IC50) was 120 nM.

In the case of `CCCCc1cn(C2CCCC2)c(=O)n1Cc1ccc(-c2ccccc2-c2nnn[nH]2)nc1` [Compound 218], the IC50 was found to be 9 nM.

Compound `CCCCc1nc2c(O)nnc(O)c2n1Cc1ccc(-c2ccccc2-c2nnn[nH]2)cc1` [Compound 122] returned an IC50 of 46 nM.

The compound `CCCc1nc(CCC)n(Cc2ccc(-c3ccccc3-c3nnn[nH]3)cc2)n1` [Compound 23] gave an IC50 of 430 nM.

`CCCCc1nc(CCC(=O)O)n(Cc2ccc(-c3ccccc3-c3nnn[nH]3)cc2)n1` [Compound 75]: the IC50 amounted to 570 nM.

For the compound `CCCCc1cn(CC(CC)CC)c(=O)n1Cc1ccc(-c2ccccc2-c2nnn[nH]2)nc1` [Compound 215], the half-maximal inhibitory concentration (IC50) worked out at 45 nM.

Turning to `CCCCc1nc(CC(CC)CC)n(Cc2ccc(-c3ccccc3-c3nnn[nH]3)nc2)n1` [Compound 263], the IC50 worked out at 57 nM.

For the compound `CCCCc1cn(CC2CCCC2)c(=O)n1Cc1ccc(-c2ccccc2-c2nnn[nH]2)nc1` [Compound 219], the IC50 turned out to be 14 nM.

Take `CCCCc1nc(Cc2ccc(-c3ccccc3-c3nnn[nH]3)nc2)n(CC(C)(C)C)n1` [Compound 195]: the 50% inhibitory concentration (IC50) amounted to 34 nM.

`CCCCc1nc(CF)nn1Cc1ccc(-c2ccccc2-c2nnn[nH]2)cc1` [Compound 70] yielded an IC50 of 44 nM.

`CCCCc1nc(C)nn1Cc1ccc(-c2ccccc2-c2nnn[nH]2)cc1` [Compound 43] returned a 50% inhibitory concentration (IC50) of 19 nM.

Compound `CCCCc1cn(-c2c(C)cc(C)cc2C)c(=O)n1Cc1ccc(-c2ccccc2-c2nnn[nH]2)nc1` [Compound 243] yielded a half-inhibitory concentration (IC50) of 250 nM.

With `CCCCc1nc(C(=O)NC)n(Cc2ccc(-c3ccccc3-c3nnn[nH]3)nc2)n1` [Compound 269], the half-maximal inhibitory concentration (IC50) is 9.7 nM.

With `CCCCc1cn(CCCC)c(=O)n1Cc1ccc(-c2ccncc2-c2nnn[nH]2)cc1` [Compound 237], the IC50 was determined as 3.6 nM.

On to `CCCCc1nc(CC(C)(C)C)n(Cc2ccc(-c3ccccc3-c3nnn[nH]3)nc2)n1` [Compound 261], for which the IC50 was 18 nM.

Compound `CCCCc1nc(CCCC2CCCCC2)n(Cc2ccc(-c3ccccc3-c3nnn[nH]3)cc2)n1` [Compound 68] displayed an IC50 of 8.6 nM.

Regarding `CCCCc1nc(C(F)(F)CCC)n(Cc2ccc(-c3ccccc3-c3nnn[nH]3)nc2)n1` [Compound 259], the IC50 is 54 nM.

The compound `CCCCc1nc(CCc2ccccc2)n(Cc2ccc(-c3ccccc3-c3nnn[nH]3)nc2)n1` [Compound 265] registered a concentration for half-maximal inhibition (IC50) of 110 nM.

The compound `CCCCc1nc2c(Cl)nnc(Cl)c2n1Cc1ccc(-c2ccccc2-c2nnn[nH]2)cc1` [Compound 121] came in with a 50% inhibitory concentration (IC50) of 46 nM.

Regarding `CCCCc1nc(CCCC)n(Cc2ccc(-c3ccncc3-c3nnn[nH]3)cc2)n1` [Compound 254], the IC50 was determined as 72 nM.

For the compound `CCCCc1cn(CC(C)(C)C)c(=O)n1Cc1ccc(-c2ccccc2-c2nnn[nH]2)nc1` [Compound 213], the IC50 came to 51 nM.

Compound `CCCCc1cn(CCC(C)(C)C)c(=O)n1Cc1ccc(-c2ccccc2-c2nnn[nH]2)nc1` [Compound 214] registered an IC50 of 65 nM.

As to `C[C@]12CCC(=O)C=C1C1CC1[C@H]1[C@@H]3CC[C@@](O)(CCC(=O)O)[C@@]3(C)CC3O[C@]312` (stereo partly shown) [Compound 8], the IC50 was 17000 nM.

Compound `CCCCn1nc(CCC)nc1Cc1ccc(-c2ccccc2-c2nnn[nH]2)nc1` [Compound 163] had a half-maximal inhibitory concentration (IC50) of 420 nM.

`CCCCc1nn(CC(O)c2ccccc2)c(=O)n1Cc1ccc(-c2ccccc2-c2nn[nH]n2)cc1` (stereo not shown) [Compound 94] registered an IC50 of 5800 nM.
